In patent US20240262795A1, “PYRAZINE COMPOUNDS AS INHIBITORS OF FLT3” (Biomea Fusion, Inc., priority 2021, published 2024):
Numbering of substitutions follows the chain as printed.

What was measured:
[1] = target: T1, Ba/F3 cell lines stably expressing human FLT3-ITD (Homo sapiens, UniProt P36888, cells depend on it, form not given); assay: FLT3 mutant assay, cell viability, Ba/F3-FLT3-ITD; assay type: cell-based, mouse; conditions: IC50 (3 days), CellTiter-Glo; read-out: Ba/F3-FLT3-ITD Relative IC50
T1 sequence (P36888 1-993): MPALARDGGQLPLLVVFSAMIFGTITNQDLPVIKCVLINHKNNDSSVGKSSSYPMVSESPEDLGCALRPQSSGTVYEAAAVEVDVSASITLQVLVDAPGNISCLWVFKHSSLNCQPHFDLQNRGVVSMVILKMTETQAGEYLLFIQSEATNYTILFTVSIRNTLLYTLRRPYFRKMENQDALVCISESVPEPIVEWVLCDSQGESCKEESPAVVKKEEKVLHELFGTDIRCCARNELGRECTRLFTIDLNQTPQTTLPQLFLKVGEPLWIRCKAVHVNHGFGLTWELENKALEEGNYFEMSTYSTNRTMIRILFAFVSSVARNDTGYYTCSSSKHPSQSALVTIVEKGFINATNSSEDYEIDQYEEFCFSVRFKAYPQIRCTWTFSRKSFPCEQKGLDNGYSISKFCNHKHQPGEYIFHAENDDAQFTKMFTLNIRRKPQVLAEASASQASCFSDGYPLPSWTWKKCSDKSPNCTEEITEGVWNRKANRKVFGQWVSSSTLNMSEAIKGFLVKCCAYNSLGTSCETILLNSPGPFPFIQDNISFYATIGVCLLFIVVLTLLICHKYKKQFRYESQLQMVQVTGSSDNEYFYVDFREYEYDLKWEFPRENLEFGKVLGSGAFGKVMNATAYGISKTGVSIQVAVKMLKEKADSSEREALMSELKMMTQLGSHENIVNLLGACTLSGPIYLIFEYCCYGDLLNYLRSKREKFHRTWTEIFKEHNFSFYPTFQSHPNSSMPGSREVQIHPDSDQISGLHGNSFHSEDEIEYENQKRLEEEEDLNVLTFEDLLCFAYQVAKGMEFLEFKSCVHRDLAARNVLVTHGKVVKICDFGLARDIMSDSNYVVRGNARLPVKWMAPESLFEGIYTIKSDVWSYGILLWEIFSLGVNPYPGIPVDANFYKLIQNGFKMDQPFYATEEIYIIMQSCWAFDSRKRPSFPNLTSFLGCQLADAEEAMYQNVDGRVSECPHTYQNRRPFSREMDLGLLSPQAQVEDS
Procedure: (§1) Activity of compounds on FLT3 activating mutations were assessed using Ba/F3 cell lines (mouse pro-B cell line) stably expressing human FLT3-ITD, FLT3-ITD-D835Y or FLT3-ITD-F691L. […] The supernatant collected were concentrated with PEG8000 and used to infect Ba/F3 cells at 1-5 MOI in serum-free media with polybrene. Infected Ba/F3 cells were selected in presence of puromycin, and surviving cells verified by sequencing and/or protein detection assay. Constitutive expression of the activating kinase transforms the Ba/F3 cells into IL-3-independent growth allowing them to be cultured in the absence of IL-3. […] For use in compound testing, cells in exponential growth phase were harvested, counted, and resuspended at the required cell density. Cell viability assays were performed in 96-well assay plates and 90 μL of cell suspension seeded per well. Serial dilutions of the test compounds and assay controls and were freshly prepared for the assay. Nine-point 3× serial dilutions were prepared in 100% DMSO (400× stock) and subsequently diluted in cell culture media to obtain 10× stocks. Ten microliters of the 10× stock serial dilutions were added to the appropriate wells (triplicate wells per condition) in the assay plate. […] Assay plates were incubated for 3 days in at 37° C. in a humidified incubator with 5% CO2.
(§2) Inhibition rate (IR) of the tested compounds was determined by the following formula: IR (%)=(1−(RLU compound−RLU blank)/(RLU control−RLU blank))*100%. The inhibitions of different dose of compound were calculated in Excel file, and the dose responses were analysed using GraphPad Prism to evaluate related parameters, such as Bottom, Top and IC50. For the IC50 analysis by GraphPad Prism, the equation below was used to fit curve: Y=Bottom+(Top−Bottom)/(1+10^((LogIC50−X)*HillSlope))

[2] = target: T2, Ba/F3 cell lines stably expressing human FLT3-ITD-F691L (Homo sapiens, UniProt P36888, F691L, cells depend on it, form not given); assay: FLT3 mutant assay, cell viability, Ba/F3-FLT3-ITD-F691L; assay type: cell-based, mouse; conditions: IC50 (3 days), CellTiter-Glo; read-out: Ba/F3-FLT3-ITD-F691L Relative IC50
T2 construct: Ba/F3-FLT3-ITD-F691L Relative IC50
T2 sequence (P36888 1-993 F691L): T1 sequence (P36888 1-993) with F691L
Procedure: as §1, §2

Compound	GI50 [1]	GI50 [2]
CCc1nc(C(N)=O)c(Nc2cccc(CCNC(=O)CN(C)C(=O)/C=C/CN3CCC3)c2)nc1N(C)CC [Compound 516A, (E)-3-((3-(2-(2-(4-(azetidin-1-yl)-N-methylbut-2-enamido)acetamido)ethyl)phenyl)amino)-6-ethyl-5-(ethyl(methyl)amino) pyrazine-2-carboxamide]	1 to 10 nM	1 to 10 nM
CCc1nc(C(N)=O)c(Nc2ccnc(CCNC(=O)[C@H](C)N(C)C(=O)/C=C/CN(C)C)c2)nc1C1CC1 [Compound 310, (S,E)-5-cyclopropyl-3-((2-(2-(2-(4-(dimethylamino)-N-methylbut-2-enamido)propanamido)ethyl)pyridin-4-yl)amino)-6-ethylpyrazine-2-carboxamide]	1 to 10 nM	10 to 100 nM
CCc1nc(C(N)=O)c(Nc2cccc(CCNC(=O)CN(C)C(=O)/C=C/CN(C)C)c2)nc1C1CC1 [Compound 219, (E)-5-cyclopropyl-3-((3-(2-(2-(4-(dimethylamino)-N-methylbut-2-enamido)acetamido)ethyl)phenyl)amino)-6-ethylpyrazine-2-carboxamide]	1 to 10 nM	1 to 10 nM
Cc1nc(C(N)=O)c(Nc2cccc(CCNC(=O)[C@H](C)N(C)C(=O)/C=C/CN(C)C)c2)nc1N(C)C(C)C [Compound 232, (S, E)-3-((3-(2-(2-(4-(dimethylamino)-N-methylbut-2-enamido)propanamido)ethyl)phenyl)amino)-5-(isopropyl (methyl)amino)-6-methylpyrazine-2-carboxamide]	1 to 10 nM	1 to 10 nM
CCc1nc(C(N)=O)c(Nc2cccc([C@@H](C)CNC(=O)CN(C)C(=O)/C=C/CN(C)C)c2)nc1C1CC1 [Compound 504, (R,E)-5-cyclopropyl-3-((3-(1-(2-(4-(dimethylamino)-N-methylbut-2-enamido)acetamido)propan-2-yl)phenyl)amino)-6-ethylpyrazine-2-carboxamide]	1 to 10 nM	1 to 10 nM
CCc1nc(Nc2cccc([C@@H](C)CNC(=O)CN(C)C(=O)/C=C/CN3CCC3)c2)c(C(N)=O)nc1CC [Compound 508, (R, E)-3-((3-(1-(2-(4-(azetidin-1-yl)-N-methylbut-2-enamido)acetamido)propan-2-yl)phenyl)amino)-5,6-diethylpyrazine-2-carboxamide]	1 to 10 nM	1 to 10 nM
CCc1nc(C(N)=O)c(Nc2cccc([C@@H](C)CNC(=O)CN(C)C(=O)/C=C/CN3CCC3)c2)nc1N(C)CC [Compound 518, (R,E)-3-((3-(1-(2-(4-(azetidin-1-yl)-N-methylbut-2-enamido)acetamido)propan-2-yl)phenyl)amino)-6-ethyl-5-(ethyl(methyl)amino)pyrazine-2-carboxamide]	1 to 10 nM	1 to 10 nM
CCc1nc(C(N)=O)c(Nc2ccc(N3CCC(N4CCN(C)CC4)CC3)c(OC)c2)nc1NC1CCOCC1 [Gilteritinib, gilteritinib, reference compound]	–	10 to 100 nM
CCc1nc(C(N)=O)c(Nc2cccc([C@@H](C)CNC(=O)CN(C)C(=O)/C=C/CN3CCC3)c2)nc1C1CC1 [Compound 506, (R,E)-3-((3-(1-(2-(4-(azetidin-1-yl)-N-methylbut-2-enamido)acetamido)propan-2-yl)phenyl)amino)-5-cyclopropyl-6-ethylpyrazine-2-carboxamide]	1 to 10 nM	1 to 10 nM
CCOc1nc(Nc2cccc(CCNC(=O)CN(C)C(=O)/C=C/CN3CCC3)c2)c(C(N)=O)nc1CC [Compound 602, (E)-3-((3-(2-(2-(4-(azetidin-1-yl)-N-methylbut-2-enamido)acetamido)ethyl)phenyl)amino)-5-ethoxy-6-ethylpyrazine-2-carboxamide]	1 to 10 nM	1 to 10 nM
CCc1nc(C(N)=O)c(Nc2ccnc(CCNC(=O)[C@H](C)N(C)C(=O)/C=C/CN(C)C)c2)nc1N(C)C(C)C [Compound 605, (S, E)-3-((2-(2-(2-(4-(dimethylamino)-N-methylbut-2-enamido)propanamido)ethyl)pyridin-4-yl)amino)-6-ethyl-5-(isopropyl (methyl)amino) pyrazine-2-carboxamide]	1 to 10 nM	10 to 100 nM
CCc1nc(C(N)=O)c(Nc2cccc(CCNC(=O)CN(C)C(=O)/C=C/CN3CCC3)c2)nc1OC(C)C [Compound 603, (E)-3-((3-(2-(2-(4-(azetidin-1-yl)-N-methylbut-2-enamido)acetamido)ethyl)phenyl)amino)-6-ethyl-5-isopropoxypyrazine-2-carboxamide]	1 to 10 nM	10 to 100 nM
CCc1nc(C(N)=O)c(Nc2cccc(CCNC(=O)[C@H](C)N(C)C(=O)/C=C/CN(C)C)c2)nc1N(C)C(C)C [Compound 204, (S,E)-3-((3-(2-(2-(4-(dimethylamino)-N-methylbut-2-enamido)propanamido)ethyl)phenyl)amino)-6-ethyl-5-(isopropyl(methyl)amino)pyrazine-2-carboxamide]	1 to 10 nM	1 to 10 nM
CCc1nc(C(N)=O)c(Nc2cccc(CCNC(=O)[C@H](C)N(C)C(=O)/C=C/CN(C)C)c2)nc1NC(C)C [Compound 205, (S,E)-3-((3-(2-(2-(4-(dimethylamino)-N-methylbut-2-enamido)propanamido)ethyl)phenyl)amino)-6-ethyl-5-(isopropylamino)pyrazine-2-carboxamide]	< 1 nM	1 to 10 nM
CCCc1nc(Nc2cccc([C@@H](C)CNC(=O)CN(C)C(=O)/C=C/CN3CCC3)c2)c(C(N)=O)nc1CC [Compound 507, (R,E)-3-((3-(1-(2-(4-(azetidin-1-yl)-N-methylbut-2-enamido)acetamido)propan-2-yl)phenyl)amino)-6-ethyl-5-propylpyrazine-2-carboxamide]	1 to 10 nM	1 to 10 nM
